# In publication PMC9243654 (Frontiers in Nutrition, 2022):
# Read-outs that look alike come from different tables or passages of the source.
# Columns and labels:
# in vitro = conditions: for PAMPA-BBB log Pe (cm s−1): pH 7.4
# Method: The PAMPA-BBB assay was conducted according to the methodology followed by Di et al., with some modifications as described below ([15]). First, the BBB solution was prepared by dissolving 8 mg of PBL and 4 mg of cholesterol in 600 μl of n-dodecane. The initial donor solution was prepared by mixing 1 ml of extract (10 mg ml^−1 in EtOH) with 1 ml of buffer (PBS, pH = 7.4, 10 mM). The filter membrane of the donor plate was carefully coated with 5 μl of BBB solution. The acceptor plate was filled with 350 μl of buffer, and the donor plate was carefully assembled over the acceptor plate like a “sandwich.” Finally, the donor plate was filled with 350 μl of donor solution, covered, and incubated for 4 h at 37°C in the dark. After incubation time, 300 μl of the solution was taken from both plates, transferred to separate vials, and dried in the SpeedVac system at 40°C and 13 mbar pressure. Dried acceptor and donor solution were dissolved in 50 μl of pure EtOH before subjecting to UHPLC-Q-TOF-MS analysis. Permeability across in vitro BBB of the bioactive compound was measured according to Equation (1) ([25]), with some modifications in concentration rates.
# (1) Pe=-ln[1-CA(t)/Ce]/A^*(1/VD+1/VA)^*t
# Cequilibrium was calculated according to the following equation ([2]):
# (2) Cequilibrium=[CD(t)*VD+CA(t)*VA]/(VD+VA)
# [1] = ref PubChem database, cited from earlier work
# [2] = compounds of RSFE extract, octanol-water partition coefficient
# [3] = compound within LPLE (Nothofagus pumilio, lenga PLE extract), N.D = not detected in acceptor
# [4] = compounds identified in LPLE extract
# [5] = PAMPA, pH 7.4, PAMPA-BBB log Pe (cm s−1)
# [6] = PAMPA, pH 7.4, PAMPA-BBB log Pe, compound within LPLE (Nothofagus pumilio, lenga PLE extract), N.D = not detected in acceptor
SMILES,Cross BBB potential (in vitro; PAMPA),Cross BBB potential (in vitro; compound within KD extract),Log P ([1]; compounds of KD extract),"Log P [1, 4]",Log P ([1]; compounds of ASFE extract),other results
COc1cc(-c2oc3cc(O)cc(O)c3c(=O)c2O[C@@H]2O[C@H](CO)[C@@H](O)[C@H](O)[C@H]2O)ccc1O [Isorhamnetin-3-O-glucoside],,,,,,"Cross BBB potential (in vitro; compound within RSFE extract): -; Log P [1, 2]: 0.7"
O=c1c(O[C@@H]2O[C@H](CO)[C@@H](O)[C@H](O)[C@H]2O)c(-c2ccc(O)cc2)oc2cc(O)cc(O)c12 [Kaempferol 3-O-β-D-glucoside],,-,2.37,,,
C[C@H]1O[C@H](O[C@H]2CC[C@]3(C=O)[C@H]4CC[C@]5(C)[C@@H](c6ccc(=O)oc6)CC[C@]5(O)[C@@H]4CC[C@]3(O)C2)[C@H](O)[C@@H](O)[C@@H]1O [Kalanchoside A],,-,−0.1,,,
CC(=O)O[C@H]1C[C@H](C)O[C@@H](O[C@H]2CC[C@]3(C=O)[C@H]4[C@H](O)C(=O)[C@]5(C)[C@@H](c6ccc(=O)oc6)CC[C@]5(O)[C@@H]4CC[C@]3(O)C2)[C@H]1O [Kalantuboside A],,-,7.5,,,
COc1ccc(-c2cc(=O)c3c(O)c(O)c(OC)cc3o2)cc1 [Ladanein],,,,,,"Papp at 4 h (in vitro; PAMPA, pH 7.4, PAMPA-BBB log Pe (cm s−1), compound within RSFE extract, 4 h, 37°C, PBS pH 7.4): 141 ×10⁻⁶ cm/s; Cross BBB potential (in vitro; compound within RSFE extract): +++ (log Pe > −4.5); Log P [1, 2]: 2.0"
C=C1CC[C@]2(C(=O)O)CC[C@]3(C)C(=CC[C@@H]4[C@@]5(C)CC[C@H](O)C(C)(C)[C@@H]5CC[C@]43C)[C@@H]2[C@H]1C [Micromeric acid],,,,,,"Cross BBB potential (in vitro; compound within RSFE extract): -; Log P [1, 2]: 6.5"
O=c1c(-c2ccc(O)cc2)coc2c([C@@H]3O[C@H](CO)[C@@H](O)[C@H](O)[C@H]3O)c(O)c([C@@H]3O[C@H](CO)[C@@H](O)[C@H](O)[C@H]3O)c(O)c12 [Paniculatin],,-,−2.3,,,
COc1c(O)cc2oc(-c3ccc(O)c(O)c3)c(O)c(=O)c2c1O [Patuletin],,-,2.1,,,
OC[C@H]1O[C@@H](Oc2cc(O)cc(/C=C/c3ccc(O)cc3)c2)[C@H](O)[C@@H](O)[C@@H]1O [Piceid],,,,1.7,1.7,"Cross BBB potential (in vitro; compound within LPLE (Nothofagus pumilio, lenga PLE extract), classes based on Könczöl et al.): -"
O=Cc1ccc(O)c(O)c1 [Protocatechuic aldehyde],,,,1.1,1.1,PAMPA-BBB log Pe (cm s−1) (in vitro; PAMPA): −5.75 cm s−1; PAMPA-BBB log Pe (in vitro; [3]): −5.13 cm s−1
Oc1cccc(O)c1O [Pyrogallol],-,,,0.5,,
"O=c1c(O)c(-c2ccc(O)c(O)c2)oc2cc(O)cc(O)c12 [Quercetin, reference compound]",,,1.5,1.5,1.5,"Papp at 4 h (in vitro; PAMPA, pH 7.4, LogPe, permeability of BBB to quercetin, present study): 0.0955 ×10⁻⁶ cm/s; Papp at 4 h (in vitro; [6]): 0.0245 ×10⁻⁶ cm/s"

# The next lines start with results.
Cross BBB potential (in vitro; PAMPA),SMILES,Cross BBB potential (in vitro; compound within KD extract),Log P ([1]; compounds of KD extract),"Log P [1, 4]",Log P ([1]; compounds of ASFE extract),other results
++,CC1(C)C[C@@H]2C3=CC[C@@H]4[C@@]5(C)CC[C@H](O)[C@@](C)(C=O)C5CC[C@@]4(C)[C@]3(C)CC[C@@]2(C(=O)O)C[C@@H]1O (stereo partly shown) [Lucyin A],,,5.3,5.3,PAMPA-BBB log Pe (in vitro; [3]): −4.74 cm s−1
++,COC(=O)[C@]12CCCC(C)(C)[C@@H]1CCc1cc(C(C)C)c(O)c(O)c12 [Methyl carnosate],,,,,"Papp at 4 h (in vitro; [5]): 5.5 ×10⁻⁶ cm/s; Log P [1, 2]: 5.2"
++,CC(=O)OC(C)(C)[C@@H]1CC[C@@]2(C)CO[C@]3(C)C=CO[C@]23C1 [Phytuberin],,,,,"PAMPA-BBB log Pe (cm s−1) (in vitro; PAMPA, 4 h): −4.51 cm s−1; Log P ([1]; compounds of T33 extract): 2.3"
+++,O=C(O)c1ccc(O)c(O)c1 [Protocatechuic acid],,1.1,1.1,1.1,"PAMPA-BBB log Pe (cm s−1) (in vitro; PAMPA, 4 h): −3.92 cm s−1; Papp at 4 h (in vitro; [5]): 148 ×10⁻⁶ cm/s; Papp at 4 h (in vitro; PAMPA, pH 7.4, PAMPA-BBB log Pe (cm s−1), compound within KD extract, 4 h, 37°C, PBS pH 7.4): 105 ×10⁻⁶ cm/s; Papp at 4 h (in vitro; [6]): 138 ×10⁻⁶ cm/s"
